In this data set the test system is CCRIS mutagenicity, Ames/micronucleus/aberration tests. Put plainly: CCRIS mutagenicity studies.
The mark [1] stands for this setting: Test System: AMES SALMONELLA TYPHIMURIUM, Strain/Indicator: TA98, Metabolic Activation: RAT, LIVER, S-9, AROCLOR 1254, Method: STANDARD PLATE.
The mark [2] stands for this setting: Test System: AMES SALMONELLA TYPHIMURIUM, Strain/Indicator: TA100, Metabolic Activation: NONE, Method: STANDARD PLATE.

The source made the active and inactive calls. How the calls were made is not given here.

Regarding `Oc1cccc(O)c1`, the mutagenic call is “active; positive (structural changes and ploidy). weak response” (End Point: In vitro chromosomal aberrations, Test System: Chinese hamster lung (CHL/IU) cells, Metabolic Activation: Rat, Liver, S9, Phenobarbital and 5,6-benzoflavone); “inactive; negative” (End Point: MORPHOLOGICAL TRANSFORMATION, Test System: SYRIAN HAMSTER EMBRYO CELLS (SHE)); “inactive; negative” (End Point: MORPHOLOGICAL TRANSFORMATION, Test System: SYRIAN HAMSTER EMBRYO CELLS (SHE), Metabolic Activation: NONE); “inactive; negative” (Test System: AMES SALMONELLA TYPHIMURIUM, Strain/Indicator: TA97, Metabolic Activation: NONE, Method: PREINCUBATION); “inactive; negative” (Test System: AMES SALMONELLA TYPHIMURIUM, Strain/Indicator: TA97, Metabolic Activation: RAT, LIVER, S-9, PHENOBARBITAL, Method: PREINCUBATION); “inactive; negative” (Test System: AMES SALMONELLA TYPHIMURIUM, Strain/Indicator: TA98, Metabolic Activation: HAMSTER, LIVER, S-9, AROCLOR 1254 (10%), Method: PREINCUBATION). Moreover, the mutagenic call reads like this: (Test System: AMES SALMONELLA TYPHIMURIUM, Strain/Indicator: TA98, Metabolic Activation: NONE) “inactive; negative”; (Test System: AMES SALMONELLA TYPHIMURIUM, Strain/Indicator: TA98, Metabolic Activation: NONE, Method: PREINCUBATION) “inactive; negative”; (Test System: AMES SALMONELLA TYPHIMURIUM, Strain/Indicator: TA98, Metabolic Activation: RAT, LIVER, S-9, AROCLOR 1254 (10%), Method: PREINCUBATION) “inactive; negative”; (Test System: AMES SALMONELLA TYPHIMURIUM, Strain/Indicator: TA98, Metabolic Activation: RAT, LIVER, S-9, PHENOBARBITAL, Method: PREINCUBATION) “inactive; negative”; (Test System: AMES SALMONELLA TYPHIMURIUM, Strain/Indicator: TA98, Metabolic Activation: RAT, LIVER, S-9, SODIUM PHENOBARBITAL AND 5,6-BENZOFLAVONE, Method: PREINCUBATION) “inactive; negative”; (Test System: AMES SALMONELLA TYPHIMURIUM, Strain/Indicator: TA98, Metabolic Activation: RAT, LIVER, S-9, Method: STANDARD PLATE) “active; positive”. Further, the mutagenic call is “inactive; negative” (Test System: AMES SALMONELLA TYPHIMURIUM, Strain/Indicator: TA98, Metabolic Activation: S-9); “inactive; negative” (Test System: AMES SALMONELLA TYPHIMURIUM, Strain/Indicator: TA100, Metabolic Activation: HAMSTER, LIVER, S-9, AROCLOR 1254 (10%), Method: PREINCUBATION); “inactive; negative” (Test System: AMES SALMONELLA TYPHIMURIUM, Strain/Indicator: TA100, Metabolic Activation: NONE, Method: PREINCUBATION); “inactive; negative” (Test System: AMES SALMONELLA TYPHIMURIUM, Strain/Indicator: TA100, Metabolic Activation: RAT, LIVER, S-9, AROCLOR 1254 (10%), Method: PREINCUBATION); “inactive; negative” (Test System: AMES SALMONELLA TYPHIMURIUM, Strain/Indicator: TA100, Metabolic Activation: RAT, LIVER, S-9, SODIUM PHENOBARBITAL AND 5,6-BENZOFLAVONE, Method: PREINCUBATION); “inactive; negative” (Test System: AMES SALMONELLA TYPHIMURIUM, Strain/Indicator: TA102, Metabolic Activation: NONE, Method: PREINCUBATION). Further, the mutagenic call is, setting by setting: (Test System: AMES SALMONELLA TYPHIMURIUM, Strain/Indicator: TA102, Metabolic Activation: RAT, LIVER, S-9, SODIUM PHENOBARBITAL AND 5,6-BENZOFLAVONE, Method: PREINCUBATION) “inactive; negative”; (Test System: AMES SALMONELLA TYPHIMURIUM, Strain/Indicator: TA104, Metabolic Activation: NONE, Method: PREINCUBATION) “inactive; negative”; (Test System: AMES SALMONELLA TYPHIMURIUM, Strain/Indicator: TA104, Metabolic Activation: RAT, LIVER, S-9, SODIUM PHENOBARBITAL AND 5,6-BENZOFLAVONE, Method: PREINCUBATION) “inactive; negative”; (Test System: AMES SALMONELLA TYPHIMURIUM, Strain/Indicator: TA1535, Metabolic Activation: HAMSTER, LIVER, S-9, AROCLOR 1254 (10%), Method: PREINCUBATION) “inactive; negative”; (Test System: AMES SALMONELLA TYPHIMURIUM, Strain/Indicator: TA1535, Metabolic Activation: NONE, Method: PREINCUBATION) “inactive; negative”; (Test System: AMES SALMONELLA TYPHIMURIUM, Strain/Indicator: TA1535, Metabolic Activation: RAT, LIVER, S-9, AROCLOR 1254 (10%), Method: PREINCUBATION) “inactive; negative”. Also, the mutagenic call (Test System: AMES SALMONELLA TYPHIMURIUM, Strain/Indicator: TA1535, Metabolic Activation: RAT, LIVER, S-9, SODIUM PHENOBARBITAL AND 5,6-BENZOFLAVONE, Method: PREINCUBATION) was “inactive; negative”; the mutagenic call (Test System: AMES SALMONELLA TYPHIMURIUM, Strain/Indicator: TA1537, Metabolic Activation: HAMSTER, LIVER, S-9, AROCLOR 1254 (10%), Method: PREINCUBATION) was “inactive; negative”; the mutagenic call (Test System: AMES SALMONELLA TYPHIMURIUM, Strain/Indicator: TA1537, Metabolic Activation: NONE, Method: PREINCUBATION) was “inactive; negative”; the mutagenic call (Test System: AMES SALMONELLA TYPHIMURIUM, Strain/Indicator: TA1537, Metabolic Activation: RAT, LIVER, S-9, AROCLOR 1254 (10%), Method: PREINCUBATION) was “inactive; negative”; the mutagenic call (Test System: AMES SALMONELLA TYPHIMURIUM, Strain/Indicator: TA1537, Metabolic Activation: RAT, LIVER, S-9, SODIUM PHENOBARBITAL AND 5,6-BENZOFLAVONE, Method: PREINCUBATION) was “inactive; negative”; the mutagenic call (Test System: E. COLI, Strain/Indicator: B/R WP2 (TRP-HCR-), Metabolic Activation: RAT, LIVER, S-9, Method: STANDARD PLATE) was “active; positive”. Moreover, the mutagenic call is, setting by setting: (Test System: E. COLI, Strain/Indicator: WP2UVRA/PKM101, Metabolic Activation: NONE, Method: PREINCUBATION) “inactive; negative”; (Test System: E. COLI, Strain/Indicator: WP2UVRA/PKM101, Metabolic Activation: RAT, LIVER, S-9, SODIUM PHENOBARBITAL AND 5,6-BENZOFLAVONE, Method: PREINCUBATION) “inactive; negative”; (Test System: E. COLI, Strain/Indicator: WP2UVRA, Metabolic Activation: NONE, Method: PREINCUBATION) “inactive; negative”; (Test System: E. COLI, Strain/Indicator: WP2UVRA, Metabolic Activation: RAT, LIVER, S-9, SODIUM PHENOBARBITAL AND 5,6-BENZOFLAVONE, Method: PREINCUBATION) “inactive; negative”; (Test System: MOUSE LYMPHOMA, Strain/Indicator: L5178Y (TK+/TK-), Metabolic Activation: NONE, Method: SUSPENSION/PLATE) “active; positive”.

For the molecule `O=C(O)C1=C/C(=N\Nc2ccc(-c3ccc(N=Nc4ccc(N/N=C5\C=CC(=O)C(C(=O)O)=C5)c5cc(S(=O)(=O)O)ccc45)cc3)cc2)C=CC1=O`, the mutagenic call (Test System: AMES SALMONELLA TYPHIMURIUM, Strain/Indicator: TA98, Metabolic Activation: HAMSTER, LIVER, S-9, Method: PREINCUBATION (PRIVAL METHOD)) is “active; positive”.

As for `CC(C)=C[C@@H]1[C@@H](C(=O)OCc2coc(Cc3ccccc3)c2)C1(C)C`, the mutagenic call by setting is: (Test System: AMES SALMONELLA TYPHIMURIUM, Strain/Indicator: TA98, Metabolic Activation: NONE, Method: STANDARD PLATE) “inactive; negative”; under setting [1], “inactive; negative”; under setting [2], “inactive; negative”; (Test System: AMES SALMONELLA TYPHIMURIUM, Strain/Indicator: TA100, Metabolic Activation: RAT, LIVER, S-9, AROCLOR 1254, Method: STANDARD PLATE) “inactive; negative”; (Test System: CHINESE HAMSTER V-79, Strain/Indicator: V-79/6-THIOGUANINE, Metabolic Activation: NONE, Method: STANDARD PLATE) “inactive; negative”; (Test System: CHINESE HAMSTER V-79, Strain/Indicator: V-79/6-THIOGUANINE, Metabolic Activation: RAT HEPATOCYTES, Method: STANDARD PLATE) “inactive; negative”. In addition, the mutagenic call is, setting by setting: (Test System: CHINESE HAMSTER V-79, Strain/Indicator: V-79/OUABAIN, Metabolic Activation: NONE, Method: STANDARD PLATE) “inactive; negative”; (Test System: CHINESE HAMSTER V-79, Strain/Indicator: V-79/OUABAIN, Metabolic Activation: RAT HEPATOCYTES, Method: STANDARD PLATE) “inactive; negative”.

Regarding `CC1(C)CCC[C@]2(C)C(C=O)C(C=O)=CC[C@@H]12` (stereo partly drawn), the mutagenic call by setting is: under setting [1], “inactive; negative”; under setting [2], “inactive; negative”; (Test System: AMES SALMONELLA TYPHIMURIUM, Strain/Indicator: TA2637, Metabolic Activation: NONE, Method: STANDARD PLATE) “inactive; negative”; (Test System: CHINESE HAMSTER V-79, Strain/Indicator: V-79/6-THIOGUANINE (HGPRT), Metabolic Activation: NONE) “inactive; negative”.

These data come from PubChem BioAssay AID1259407 (Chemical Carcinogenesis Research Information System (CCRIS), 2018).
